Article PMC11919252 (eLife, 2025)

Tested on: CGRP receptor (Calcrl and Ramp1) in CGRP-sniffer HEK293 cells co-cultured with DRG neurons
Test: Co-culture of DRG neurons and CGRP-sniffer cells (CGRP release)
Assay type: cell-based, mouse
Conditions: CGRPα saturating concentration 100–1000 nM; co-culture with WT and DKO DRG; n=18 wells per genotype

In the case of `CC(C)C[C@H](NC(=O)CNC(=O)[C@H](C)NC(=O)[C@H](CC(C)C)NC(=O)[C@H](CCCNC(=N)N)NC(=O)[C@H](Cc1c[nH]cn1)NC(=O)[C@@H](NC(=O)[C@@H](NC(=O)[C@@H]1CSSC[C@H](NC(=O)[C@@H](N)CO)C(=O)N[C@@H](CC(N)=O)C(=O)N[C@@H]([C@@H](C)O)C(=O)N[C@@H](C)C(=O)N[C@@H]([C@@H](C)O)C(=O)N1)C(C)C)[C@@H](C)O)C(=O)N[C@@H](CC(C)C)C(=O)N[C@@H](CO)C(=O)N[C@@H](CCCNC(=N)N)C(=O)N[C@@H](CO)C(=O)NCC(=O)NCC(=O)N[C@H](C(=O)N[C@H](C(=O)N[C@@H](CCCCN)C(=O)N[C@@H](CC(=O)O)C(=O)N[C@@H](CC(N)=O)C(=O)N[C@@H](Cc1ccccc1)C(=O)N[C@H](C(=O)N1CCC[C@H]1C(=O)N[C@H](C(=O)N[C@@H](CC(N)=O)C(=O)N[C@H](C(=O)NCC(=O)N[C@@H](CO)C(=O)N[C@@H](CCC(=O)O)C(=O)N[C@@H](C)C(=O)N[C@@H](Cc1ccccc1)C(N)=O)C(C)C)[C@@H](C)O)C(C)C)C(C)C)C(C)C` [CGRPα], the “CGRP-sniffer activation by exogenous CGRPα” value is reported as “activates CGRP-sniffers in both conditions”.
